Data published in US5610297A, “Peptides ketoamides” (Georgia Tech Research Corp., priority 1995, dated 1997).

How the values were obtained:
Half-life in plasma = type: in vitro ADME; conditions: unit inferred, unit assumed
[1] = tested on: Calpain-mediated breakdown of spectrin in platelets; test: Platelet membrane permeability assay; type: cell-based, rat; set-up: unit not given here; conditions: numeric value, unit not given
Procedure: Platelet membrane permeability assay. Calpain-mediated breakdown of spectrin was measured by quantitative densitometry of the calpain-specific 150/155 kDa spectrin fragment doublet [see Siman et al., Proc. Natl. Acad. Sci. USA 81, 3572-3576 (1984)]. Platelets were isolated by a modification of the method of Ferrell and Martin [J. Biol. Chem. 264, 20723-20729 (1989)]. Blood (15-20 ml) was drawn from male Sprague-Dawley rats into 1/10th volume of 100 mM EDTA-citrate, and centrifuged 10 minutes at 2000 rpm in a clinical centrifuge at room temperature. […] Platelets were washed once in 15 ml buffer 1, then resuspended to 10^7 cells/ml in buffer 2 (136 mM NaCl, 2.7 mM KCl, 0.42 mM NaH2 PO4, 12 mM NaHCO3, 2mM MgCl, 1 mg/ml BSA (Sigma), 5.6 mM glucose, 20 mM HEPES (Sigma) pH 7.4) and allowed to "rest" for a minimum of 10 minutes at room temperature before use.
Inhibitors were added from stock solutions made fresh in DMSO. 100 μl platelets, suspended to 10^7 cells/ml in buffer 2, were incubated with 1 μl of an inhibitor solution for 5 minutes at room temperature prior to the addition of 2 mM Ca^2+ and 1 uM A23 187. After 10 minutes total exposure to inhibitor (5 minutes exposure to ionophore) at room temperature, platelets were reisolated at 14,000 rpm for 10 sec in a Beckman microfuge, dissolved in SDS-PAGE sample buffer, and heated to 90° C. for 3 minutes.
Samples were subjected to SDS-PAGE in 4-12% gradient mini gels (Novex) and transferred to nitrocellulose (Schleicher and Schuell 0.45 um) by electroblotting. Filters were blocked for 10 minutes in 0.25% gelatin, 1% BSA, 0.25% triton X100, 0.9% NaCl, 10 mM Tris-Cl pH 7.5, incubated overnight in the same solution containing antibody to rat spectrin, washed 3×10 minutes with 10 mM Tris-Cl pH 7.5, 0.5% triton X100, incubated 4 hours in wash buffer plus alkaline phosphatase conjugated goat anti-rabbit antibody (Biorad), and washed as above. Blots were developed using the Biorad AP conjugate substrate kit. Quantitative densitometry was used to obtain values for the intact spectrin bands and the 150/155 kDa breakdown product doublet.

[2] = target: Calpain II from rabbit muscle; test: Inhibition of calpain II (Suc-Leu-Tyr-AMC hydrolysis); type: biochemical
Procedure: Materials and Methods. HEPES, heparin, and A23187 were obtained from Calbiochem. Suc-Leu-Tyr-AMC and chromogenic substrates were obtained from Sigma. Calpain I was purified from human erythrocytes according to the method of Kitahara (Kitahara et al., J. Biochem. 95, 1759-1766) omitting the Blue-Sepharose step. Calpain II from rabbit muscle and cathepsin B were purchased from Sigma. Papain was purchased from Calbiochem.
Assay of Inhibitory Potency. Peptide α-ketoamides were assayed as reversible enzyme inhibitors. Various concentrations of inhibitors in Me2 SO were added to the assay mixture which contained buffer and substrate. The reaction was started by the addition of the enzyme and the hydrolysis rates were followed spectrophotometrically or fluorimetrically.
Calpain I from human erythrocytes and calpain II from rabbit were assayed using Suc-Leu-Tyr-AMC [Sasaki et al., J. Biol. Chem. 259, 12489-12494 (1984); incorporated herein by reference], and the AMC (7-amino-4-methylcoumarin) release was followed fluorimetrically (excitation at 380 nm, and emmision at 460 nm). Calpains were assayed in 25 mM Tris pH=8.0, 10 mM CaCl2. Fluorescence was followed using a Gilson FL-1A fluorometer or a Perkin-Elmer 203 Fluorescence spectrometer. Cathepsin B was assayed in 20 mM sodium acetate pH=5.2, 0.5 mM dithiothreitol using Bz-Phe-Val-Arg-p-nitroanilide as substrate. Alternately, cathepsin B was assayed with Z-Arg-Arg-AFC [Barrett and Kirschke, Methods Enzymol. 80, 535-561 (1981); incorporated herein by reference], and the AFC (7-amino-4-trifluoromethylcoumarin) release was followed fluorimetrically (excitation at 400 nm and emmision at 505 nm). Papain was assayed in 100 mM KPO4, 1 mM EDTA, 2.5 mM cysteine pH=6.0 using Bz-Arg-AMC or Bz-Arg-NA [Kanaoka et al., Chem. Plmrm. Bull. 25, 3126-3128 (1977); incorporated herein by reference] as a substrate. The AMC (7-amino-4-methylcoumarin) release was followed fluorimetrically (excitation at 380 nm, and emmision at 460 nm). Enzymatic hydrolysis rates were measured at various substrate and inhibitor concentrations, and KI values were determined by either Lineweaver-Burk plots or Dixon plots.
A 0.1M Hepes, 0.5M NaCl, pH 7.5 buffer was utilized for human leukocyte elastase (HLE), porcine pancreatic elastase (PPE), chymotrypsin and cathepsin G. A 0.1 Hepes, 0.01M CaCl2, pH 7.5 buffer was utilized for trypsin, plasmin, and coagulation enzymes. A 50 mM Tris-HCl, 2 mM EDTA, 5 mM cysteine, pH 7.5 was used as a buffer for papain. A 88 mM KH2 PO4, 12 mM Na2 HPO4, 1.33 mM EDTA, 2.7 mM cysteine, pH 6.0 solution was used as a buffer for cathepsin B. A 20 mM Hepes, 10 mM CaCl2, 10 mM mercatoethanol, pH 7.2 buffer was utilized for calpain I and calpain II.

Compound	t 1/2 plasma (Half-life in plasma) [min]	Ki [2] [nM]	platelet (Activity in the Platelet Assay) [1]
CCOC(=O)C(=O)[C@H](CC)NC(=O)[C@H](CC(C)C)NC(=O)[C@H](CC(C)C)NS(=O)(=O)c1ccc(C)cc1 [Tos--Leu--Leu--Abu--COOEt]	30		30
CC[C@H](NC(=O)[C@H](CC(C)C)NC(=O)OCc1ccccc1)C(=O)C(=O)NCCCN1CCOCC1 [Z--Leu--Abu--CONH--(CH2)3 --Mpl, Z-Leu-Abu-CONH-(CH2)3 --N(CH2 CH2)2 O]		41	
CCC(NC(=O)C(CC(C)C)NC(=O)OCc1ccccc1)C(=O)C(=O)NCCO (stereo not drawn) [Z--Leu--Abu--CONH--(CH2)2 OH, Z-Leu-Abu-CONH-(CH2)2 OH]		78	
CCOC(=O)C(=O)C(CC)NC(=O)C(CC(C)C)NC(=O)C(CC(C)C)NS(=O)(=O)c1ccc2ccccc2c1 (centres unmarked) [2-NapSO2--Leu--Leu--Abu--COOEt]	> 60		100
CCCCOC(=O)C(=O)[C@H](CC)NC(=O)[C@H](CC(C)C)NC(=O)OCc1ccccc1 [Z--Leu--Abu--COOn--Bu]			28
CC[C@H](NC(=O)[C@H](CC(C)C)NC(=O)OCc1ccccc1)C(=O)C(=O)NCCc1ccccc1 [Z--Leu--Abu--CONH--(CH2)2 --Ph, Z-Leu-Abu-CONH-(CH2)2 Ph]		22	
CCOC(=O)C(=O)C(CC)NC(=O)C(CC(C)C)NC(=O)C(CC(C)C)NC(=O)OCc1ccccc1 (centres unmarked) [Z--Leu--Leu--Abu--COOEt]			40
CCOC(=O)C(=O)[C@H](CC)NC(=O)[C@H](CC(C)C)NC(=O)[C@H](CC(C)C)NC(=O)c1ccc2ccccc2c1 [2-NapCO--Leu--Leu--Abu--COOEt]	25		

The next lines start with results.

t 1/2 plasma (Half-life in plasma) [min]	Ki [2] [nM]	Compound	platelet (Activity in the Platelet Assay) [1]
2.8		CCCC(NC(=O)C(CC(C)C)NC(=O)OCc1ccccc1)C(=O)C(=O)OCC (centres unmarked) [Z--Leu--Nva--COOEt]	40
	46	CC(C)C[C@H](NC(=O)OCc1ccccc1)C(=O)N[C@@H](Cc1ccccc1)C(=O)C(=O)NCc1ccccc1 [Z--Leu--Phe--CONH--Bzl, Z-Leu-Phe-CONH-Bzl]	
2.8		CCOC(=O)C(=O)[C@H](CC)NC(=O)[C@H](CC(C)C)NC(=O)OCc1ccccc1 [Z--Leu--Abu--COOEt]	42
	19	CCCCCCCCNC(=O)C(=O)[C@H](CC)NC(=O)[C@H](CC(C)C)NC(=O)OCc1ccccc1 [Z--Leu--Abu--CONH--(CH2)7 CH3, Z-Leu-Abu-CONH--(CH2)7 CH3]	
> 60	24	CC(C)C[C@H](NC(=O)OCc1ccccc1)C(=O)N[C@@H](Cc1ccccc1)C(=O)C(=O)NCCc1ccccc1 [Z--Leu--Phe--CONH(CH2)2 Ph, Z-Leu-Phe-CONH-(CH2)2 Ph]	3.0
3.7		CCCCC(NC(=O)C(CC(C)C)NC(=O)OCc1ccccc1)C(=O)C(=O)OCC (centres unmarked) [Z--Leu--Nle--COOEt]	20
7.8		CCOC(=O)C(=O)C(Cc1ccccc1)NC(=O)C(CC(C)C)NC(=O)OCc1ccccc1 (stereo not drawn) [Z--Leu--Phe--COOEt, Z-Leu-Phe-COOEt]	42
